“And” between values parts separate entries of the source, which are not always exact repeats. Identical values can stand only once. Inconclusive results and toxic doses are left out. The calls were made as follows: active = survival T/C of 150% or more; inactive = T/C below 125% in these data. Non-standard residues stand in square brackets, D forms with d. Residues, ends and D or L forms follow the SMILES beside them. ξ: configuration not given here. *: point of attachment. ξW = NC(Cc1c[nH]c2ccccc12)C(=O)O; Cbz = O=C(OCc1ccccc1)*
Test system: CD2F1 mice, L1210 leukemia ip, survival T/C
Test: NCI In Vivo Anticancer Drug Screen. Data for tumor model L1210 Leukemia (intraperitoneal) in CD2F1 (CDF1) mice
Conditions: higher = longer survival
In short: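 Read-out first: treated-group measurement over vehicle-control measurement, expressed as a ratio. Animals bore a transplanted tumor line and were dosed with compound or vehicle.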

[1] = endpoint: mean survival time, dose: 75.0 mg/kg/injection, schedule: Q04DX003 (ip), vehicle: saline
[2] = endpoint: mean survival time, dose: 150.0 mg/kg/injection, schedule: Q04DX003 (ip), vehicle: saline
[3] = endpoint: mean survival time, dose: 300.0 mg/kg/injection, schedule: Q04DX003 (ip), vehicle: saline
[4] = endpoint: mean survival time, dose: 50.0 mg/kg/injection, schedule: Q01DX009 (ip), vehicle: saline with Tween-80
[5] = endpoint: mean survival time, dose: 100.0 mg/kg/injection, schedule: Q01DX009 (ip), vehicle: saline with Tween-80
[6] = endpoint: mean survival time, dose: 100.0 mg/kg/injection, schedule: Q04DX002 (ip), vehicle: saline with Tween-80
[7] = endpoint: mean survival time, dose: 400.0 mg/kg/injection, schedule: Q04DX002 (ip), vehicle: saline with Tween-80
[8] = endpoint: mean survival time, dose: 100.0 mg/kg/injection, schedule: Q04DX003 (ip), vehicle: saline with Tween-80
[9] = endpoint: mean survival time, dose: 200.0 mg/kg/injection, schedule: Q04DX003 (ip), vehicle: saline with Tween-80
[10] = endpoint: mean survival time, dose: 400.0 mg/kg/injection, schedule: Q04DX003 (ip), vehicle: saline with Tween-80
[11] = endpoint: mean survival time, dose: 200.0 mg/kg/injection, schedule: Q01DX009 (ip), vehicle: saline with Tween-80

Measured: T/C

NNC(=O)Nc1cccnc1
inactive: endpoint: mean survival time, dose: 18.75 mg/kg/injection, schedule: Q01DX009 (ip), vehicle: saline 106 % of control | endpoint: mean survival time, dose: 37.5 mg/kg/injection, schedule: Q01DX009 (ip), vehicle: saline 98 % of control | endpoint: mean survival time, dose: 75.0 mg/kg/injection, schedule: Q01DX009 (ip), vehicle: saline 101 % of control

NC(=O)CNC(=O)C(Cc1c[nH]c2ccccc12)NC(=O)OCc1ccccc1 (configuration not stated) (Cbz-[ξW]-Gly-NH2)
inactive: [1] 93 % of control | [2] 97 % of control | [3] 98 % of control

COc1ccc(NC(=O)Oc2ccc(SC)c(C)c2)cc1
inactive: endpoint: mean survival time, dose: 25.0 mg/kg/injection, schedule: Q01DX009 (ip), vehicle: saline with Tween-80 101 % of control | endpoint: mean survival time, dose: 25.0 mg/kg/injection, schedule: Q04DX002 (ip), vehicle: saline with Tween-80 100 % of control | [4] 95 % of control | endpoint: mean survival time, dose: 50.0 mg/kg/injection, schedule: Q04DX002 (ip), vehicle: saline with Tween-80 107 % of control | [5] 89 % of control | [6] 91 % of control and 104 % of control | [7] 91 % of control

COC(=O)C1(C)CCCC2(C)C1CCC13C(O)C(C(C)C)C1CC23 (configuration not stated)
inactive: endpoint: mean survival time, dose: 100.0 mg/kg/injection, schedule: Q01DX001 (ip), vehicle: saline with Tween-80 86 % of control | endpoint: mean survival time, dose: 200.0 mg/kg/injection, schedule: Q01DX001 (ip), vehicle: saline with Tween-80 91 % of control | endpoint: mean survival time, dose: 400.0 mg/kg/injection, schedule: Q01DX001 (ip), vehicle: saline with Tween-80 97 % of control

CO[Si](c1ccccc1)(c1ccccc1)c1ccc(Br)cc1
inactive: [8] 96 % of control | [9] 98 % of control | [10] 102 % of control

O=S(=O)(NC(=S)Nc1ccc(Cl)cc1)c1ccccc1
inactive: [5] 93 % of control | [11] 109 % of control

Cc1ccc(S(=O)(=O)NC(Cc2ccccc2)C(=O)CCl)cc1 (configuration not stated)
inactive: [4] 92 % of control | [5] 96 % of control | [11] 90 % of control

CCCCCC(C)C1(CCCC)NC(C)(C)CC(C)O1 (configuration not stated)
inactive: endpoint: mean survival time, dose: 100.0 mg/kg/injection, schedule: Q04DX003 (ip), vehicle: saline 95 % of control | endpoint: mean survival time, dose: 200.0 mg/kg/injection, schedule: Q04DX003 (ip), vehicle: saline 90 % of control

C[CH2][Sn]1([CH2]C)[O]CC2OC(n3cc(C)c(=O)[nH]c3=O)CC2[O]1 (configuration not stated)
inactive: endpoint: mean survival time, dose: 0.78 mg/kg/injection, schedule: Q01DX005 (ip), vehicle: other 94 % of control | endpoint: mean survival time, dose: 1.56 mg/kg/injection, schedule: Q01DX005 (ip), vehicle: other 104 % of control | endpoint: mean survival time, dose: 3.13 mg/kg/injection, schedule: Q01DX005 (ip), vehicle: other 110 % of control | endpoint: mean survival time, dose: 6.25 mg/kg/injection, schedule: Q01DX005 (ip), vehicle: other 107 % of control

Fc1ccc(-c2ccc(F)cc2)cc1
inactive: [8] 101 % of control | [9] 98 % of control | [10] 98 % of control

CCCCCCCCC(C(=O)c1ccccc1)=C(C(F)(F)F)C(F)(F)F
inactive: [5] 91 % of control

N#CSCc1c(Cl)c(Cl)c(CSC#N)c(Cl)c1Cl
inactive: [1] 95 % of control | [2] 98 % of control | [3] 98 % of control

NN(C(=O)c1ccccc1)C1CCCCC1
inactive: [5] 97 % of control

O=C(O)CC(=O)O.[NH-]CC(O)CN=Cc1ccccc1O.[Pt] (configuration not stated)
inactive: endpoint: median survival time, dose: 5.0 mg/kg/injection, schedule: Q04DX003 (ip), vehicle: water 108 % of control | endpoint: median survival time, dose: 10.0 mg/kg/injection, schedule: Q04DX003 (ip), vehicle: water 105 % of control | endpoint: median survival time, dose: 20.0 mg/kg/injection, schedule: Q04DX003 (ip), vehicle: water 108 % of control | endpoint: median survival time, dose: 25.0 mg/kg/injection, schedule: Q04DX003 (ip), vehicle: water 110 % of control | endpoint: median survival time, dose: 40.0 mg/kg/injection, schedule: Q04DX003 (ip), vehicle: water 108 % of control | endpoint: median survival time, dose: 50.0 mg/kg/injection, schedule: Q04DX003 (ip), vehicle: water 110 % of control | endpoint: median survival time, dose: 100.0 mg/kg/injection, schedule: Q04DX003 (ip), vehicle: water 105 % of control | endpoint: median survival time, dose: 200.0 mg/kg/injection, schedule: Q04DX003 (ip), vehicle: water 103 % of control

COc1ccccc1NC(=O)Oc1cccc(C)c1
inactive: [6] 91 % of control | endpoint: mean survival time, dose: 200.0 mg/kg/injection, schedule: Q04DX002 (ip), vehicle: saline with Tween-80 88 % of control | [7] 91 % of control

O=Cc1ccc(C(=O)O)cc1
inactive: [5] 95 % of control | [11] 98 % of control | endpoint: mean survival time, dose: 400.0 mg/kg/injection, schedule: Q01DX009 (ip), vehicle: saline with Tween-80 101 % of control
